Source: patent publication US20070276040A1, “Peptidyl Arginine Deiminase Type IV Inhibitor” (priority 2004, published 2007)

Target: T1, PAD4 (Homo sapiens, UniProt Q9UM07, G112A/G55S/V82A)
T1 construct: made in house
Experiment: Inhibition reaction of Bz-Arg derivatives on PAD4 digestion
Assay type: biochemical
Conditions: substrate Bz-Arg; 20 μl inhibitor solution of 1 nmol/μl; 10 mM CaCl2, pH 7.6; 37° C. for 40 or 60 minutes; reverse-phase HPLC
Experimental: A buffer solution B (0.1 M Tris/HCl, 10 mM CaCl2, 2 mM DTT, pH 7.6, 125 μl), Bz-Arg (0.1 M Tris/HCl, 10 mM CaCl2, pH 7.6, 25 μl (a solution prepared in a concentration of 1 nmol/μl)) and PAD4 (1 μl) were mixed together under ice-cooling to give a Bz-Arg solution. PAD4 was prepared in accordance with the methods described in The Journal of Biological Chemistry, Vol. 277, No. 51, pp. 49562-49568, 2002 and in the documents cited in the journal. Twenty μl each of Bz-Arg (mono-methyl), Bz-ADMA, Bz-SDMA and a buffer solution A (0.1 M Tris/HCl, 10 mM CaCl2, pH 7.6) (a solution prepared in a concentration of 1 nmol/μl) was mixed with the Bz-Arg solution (30 μl) and allowed to react at 37° C. for 40 or 60 minutes. The reaction was quenched with 1 M HCl (50 μl) and then subjected to reverse-phase HPLC to separate the reaction mixture. […] The results as determined 40 minutes and 60 minutes after the start of reaction are shown in FIG. 3 and FIG. 4, respectively. In FIGS. 3 and 4, the reference number 1 represents the result with no inhibitor, 2 for the result with Bz-Arg (mono-methyl), 3 for the results with Bz-ADMA, and 4 for the result with Bz-SDMA; the vertical axis indicates the sample number and the horizontal axis indicates the yield of the deimination reaction (i.e., yield of the Bz-citrulline produced).

T1 sequence (Q9UM07 whole entry G55S/V82A/G112A): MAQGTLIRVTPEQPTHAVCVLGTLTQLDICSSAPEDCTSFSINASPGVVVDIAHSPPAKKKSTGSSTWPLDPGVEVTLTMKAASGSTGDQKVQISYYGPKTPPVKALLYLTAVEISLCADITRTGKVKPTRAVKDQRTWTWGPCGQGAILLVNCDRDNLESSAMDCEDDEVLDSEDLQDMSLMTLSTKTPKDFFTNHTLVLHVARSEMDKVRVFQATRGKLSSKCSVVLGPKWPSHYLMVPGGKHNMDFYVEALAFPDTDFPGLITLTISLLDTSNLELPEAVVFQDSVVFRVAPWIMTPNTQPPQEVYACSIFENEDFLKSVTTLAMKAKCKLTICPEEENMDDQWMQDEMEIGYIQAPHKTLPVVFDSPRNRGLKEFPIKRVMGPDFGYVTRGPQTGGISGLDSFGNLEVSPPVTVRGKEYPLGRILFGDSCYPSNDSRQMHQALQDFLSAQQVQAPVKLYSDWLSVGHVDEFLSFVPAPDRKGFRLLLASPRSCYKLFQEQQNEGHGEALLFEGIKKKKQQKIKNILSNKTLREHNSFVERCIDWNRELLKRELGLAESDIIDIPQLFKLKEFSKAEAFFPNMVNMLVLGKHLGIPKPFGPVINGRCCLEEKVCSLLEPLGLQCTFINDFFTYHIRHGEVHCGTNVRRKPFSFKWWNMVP

Row | inhibitory effect on PAD4 digestion (deimination of Bz-Arg, yield of the Bz-citrulline produced) | Structure (SMILES)
1 | most potent inhibitory effect | CN(C)C(=N)NCCCC(NC(=O)c1ccccc1)C(=O)O (centres unmarked) [Bz-ADMA]
2 | no inhibitory effect | C/N=C(/NC)NCCCC(NC(=O)c1ccccc1)C(=O)O (centres unmarked) [Bz-SDMA]
